Assay results published in publication PMC5564715, “Acetyl-CoA carboxylase inhibitors attenuate WNT and Hedgehog signaling and suppress pancreatic tumor growth” (Oncotarget, 2016).

What was measured:
[1] = target: T1, ACC1 (Homo sapiens, UniProt Q13085); test: ACC1 inhibition IC50 (assay details not given; Supplementary Figure S1A); assay type: biochemical
T1 construct: gene ACACA

[2] = target: T2, ACC2 (Homo sapiens, UniProt O00763); test: ACC2 inhibition IC50 (assay details not given; Supplementary Figure S1A); assay type: biochemical
T2 construct: gene ACACB
T2 sequence (O00763 whole entry): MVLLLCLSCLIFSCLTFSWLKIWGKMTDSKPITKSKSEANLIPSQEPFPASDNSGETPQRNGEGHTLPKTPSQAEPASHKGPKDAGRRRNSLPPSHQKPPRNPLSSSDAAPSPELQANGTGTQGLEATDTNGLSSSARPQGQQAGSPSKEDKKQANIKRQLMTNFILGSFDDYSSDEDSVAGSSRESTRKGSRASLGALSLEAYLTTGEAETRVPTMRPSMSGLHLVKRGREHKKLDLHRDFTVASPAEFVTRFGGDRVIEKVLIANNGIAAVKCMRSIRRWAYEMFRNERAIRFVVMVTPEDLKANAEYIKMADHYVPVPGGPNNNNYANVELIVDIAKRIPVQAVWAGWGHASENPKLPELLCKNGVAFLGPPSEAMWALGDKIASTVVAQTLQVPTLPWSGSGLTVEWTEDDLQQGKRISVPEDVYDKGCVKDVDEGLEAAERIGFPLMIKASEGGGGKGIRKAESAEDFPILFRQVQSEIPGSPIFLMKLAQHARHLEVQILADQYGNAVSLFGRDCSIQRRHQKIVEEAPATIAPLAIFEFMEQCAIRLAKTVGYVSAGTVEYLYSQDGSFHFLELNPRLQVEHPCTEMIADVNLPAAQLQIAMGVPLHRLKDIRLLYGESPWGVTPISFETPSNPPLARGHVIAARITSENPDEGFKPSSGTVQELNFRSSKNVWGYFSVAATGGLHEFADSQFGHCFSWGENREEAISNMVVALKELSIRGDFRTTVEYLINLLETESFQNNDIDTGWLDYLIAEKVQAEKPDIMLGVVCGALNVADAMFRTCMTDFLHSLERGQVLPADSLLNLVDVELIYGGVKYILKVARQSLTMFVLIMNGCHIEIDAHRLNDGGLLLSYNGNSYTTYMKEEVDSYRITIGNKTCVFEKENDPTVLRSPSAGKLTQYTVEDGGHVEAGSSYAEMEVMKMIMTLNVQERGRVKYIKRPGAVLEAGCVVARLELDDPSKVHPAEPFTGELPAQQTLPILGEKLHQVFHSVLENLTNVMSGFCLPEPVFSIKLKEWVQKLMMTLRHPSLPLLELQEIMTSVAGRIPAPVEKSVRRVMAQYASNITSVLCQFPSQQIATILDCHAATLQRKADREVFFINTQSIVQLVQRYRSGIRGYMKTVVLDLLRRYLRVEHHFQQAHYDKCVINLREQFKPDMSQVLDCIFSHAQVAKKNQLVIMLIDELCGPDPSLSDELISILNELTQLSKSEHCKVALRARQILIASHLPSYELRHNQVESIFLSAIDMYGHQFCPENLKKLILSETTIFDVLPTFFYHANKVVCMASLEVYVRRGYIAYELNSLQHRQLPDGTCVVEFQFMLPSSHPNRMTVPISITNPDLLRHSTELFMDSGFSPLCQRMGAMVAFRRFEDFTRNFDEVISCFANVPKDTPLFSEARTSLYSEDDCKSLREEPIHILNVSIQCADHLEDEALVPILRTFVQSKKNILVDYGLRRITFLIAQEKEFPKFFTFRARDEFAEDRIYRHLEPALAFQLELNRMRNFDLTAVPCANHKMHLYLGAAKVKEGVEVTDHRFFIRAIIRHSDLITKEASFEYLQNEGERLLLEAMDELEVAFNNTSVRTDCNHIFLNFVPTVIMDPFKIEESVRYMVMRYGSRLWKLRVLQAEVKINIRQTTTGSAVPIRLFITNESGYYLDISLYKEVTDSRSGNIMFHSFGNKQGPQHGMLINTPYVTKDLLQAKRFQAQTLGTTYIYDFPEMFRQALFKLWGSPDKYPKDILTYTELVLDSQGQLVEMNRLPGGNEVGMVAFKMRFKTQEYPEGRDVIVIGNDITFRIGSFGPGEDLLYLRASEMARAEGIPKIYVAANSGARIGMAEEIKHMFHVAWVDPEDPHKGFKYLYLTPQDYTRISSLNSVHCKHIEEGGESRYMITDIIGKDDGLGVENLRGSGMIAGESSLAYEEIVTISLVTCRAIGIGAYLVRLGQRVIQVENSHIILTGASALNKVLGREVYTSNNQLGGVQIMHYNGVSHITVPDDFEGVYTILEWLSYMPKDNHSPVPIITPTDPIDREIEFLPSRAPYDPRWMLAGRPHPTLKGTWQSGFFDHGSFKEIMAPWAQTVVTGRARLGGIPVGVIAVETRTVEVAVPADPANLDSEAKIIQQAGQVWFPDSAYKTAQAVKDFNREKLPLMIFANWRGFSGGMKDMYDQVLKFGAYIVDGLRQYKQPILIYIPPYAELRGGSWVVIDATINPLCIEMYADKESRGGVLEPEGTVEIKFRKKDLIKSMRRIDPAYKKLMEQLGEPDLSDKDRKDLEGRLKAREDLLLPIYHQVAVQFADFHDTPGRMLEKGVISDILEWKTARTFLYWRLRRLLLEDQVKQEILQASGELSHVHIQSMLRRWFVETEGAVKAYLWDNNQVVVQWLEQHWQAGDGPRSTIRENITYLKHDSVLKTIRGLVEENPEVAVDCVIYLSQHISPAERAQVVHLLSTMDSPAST

Substance | IC50 [1] [nM] | IC50 [2] [nM]
BAY ACC001 | 280 | 2600
BAY ACC002 | 100 | 1400
